Values joined by “and” are separate entries in the source; they are usually repeats but may differ in a detail not shown here. Identical values can stand only once.
Tests used:
[1] = system: human prostate cancer cell line (DU-145); assay: Growth inhibitory activity assay (MTT assay), in vitro antiproliferative activity; type: cell-based; settings: DU-145 cells; for % growth inhibition (mean ± SEM) / inhibition at 5 µg/mL: 5.0 μg/ml; for % growth inhibition (mean ± SEM) / inhibition at 0.01 µg/mL / inhibition at 0.5 µg/mL / inhibition at 1 µg/mL / inhibition at 2 µg/mL / inhibition at 5 µg/mL: 48 hr; for inhibition at 0.01 µg/mL / inhibition at 0.5 µg/mL / inhibition at 1 µg/mL / inhibition at 2 µg/mL / inhibition at 5 µg/mL: Homo sapiens, DU-145, 48 h, read-out: % growth inhibition (mean ± SEM); for inhibition at 0.01 µg/mL: 0.01 μg/ml; for inhibition at 0.5 µg/mL: 0.5 μg/ml; for inhibition at 1 µg/mL: 1.0 μg/ml; for inhibition at 2 µg/mL: 2.0 μg/ml
Description: 1) In Vitro Antiproliferative Activity Against Human Prostate Cancer Cell Line (DU-145)
Compounds were screened for antiproliferative activity on human prostate cell line DU-145 at National Centre of Human Genome Studies and Research. Panjab University, Chandigarh. All the compounds (10 to 16), Finasteride and starting material (9) were tested at five different concentrations: 0.01, 0.5, 1.0, 2.0, and 5.0 μg/ml. Finasteride was the positive control in this growth inhibitory assay.
Growth Inhibitory Activity Assay (MTT Assay)
We investigated the effect of newly synthesized compounds on cell growth inhibition using MTT assay. This assay quantifies the viable cells by observing the reduction of tetrazolium salt, MTT to formazan crystals by the live cells. Based on the absorbance of the cell sample after the test is carried out, cell viable can be measured [Loveland, B. E.; Jones, T. G.; Mackay. I. R.; Vaillant, F.; Wang, Z. X.; Hertzog, P. J. Biochem. International 1992, 27, 501 and Wright, S. A.; Thomas, L. N.; Douglas, R. C.; Lazier, C. B.; Rittmaster, R. S. J. Clin. Invest. 1996, 98, 2558]. Cells were cultured at a density of 5×10^3 cells/well in 96 well plates at 37° C. in 5.0% CO2 atmosphere and were allowed to attach for 24 hr. The cells were treated in triplicate with graded concentration of sample and reference drug Finasteride at 37° C. for 48 hr. A 20 μl aliquot of MTT solution was added directly to all the appropriate wells. Following 4 hr of incubation at […], the media was removed and formazan crystals, which results from the reduction of MTT by active cell were dissolved in 100 μl DMSO and vigorously mixed to dissolve the reacted dye. The absorbance of each well was read on Elisa plate reader (Merck) at 570 nm. The spectrometer was calibrated to zero absorbance using culture medium without cells. The relative cell viability (%) related to control well containing cell culture medium without drug was calculated by [A]test/[A]control×100. % Growth Inhibition=[OD]control−[OD]test/[OD]control×100 Results: […]

5α-reductase = assay: In vivo effect on serum testosterone level (5α-reductase inhibitory activity), ELISA; set-up: species or system Sprague Dawley rats; settings: for Serum levels of Testosterone, T: Sprague Dawley male rats, intraperitoneal, Finasteride 40 mg/kg and equimolar dose of compounds, 6 hr after treatment
Description: Animals (Sprague Dawley male rats weighing 150-200 g) were divided into 3 groups; vehicle (control), Finasteride (standard), treated (test sample) and each group consist of 5 animals. Sprague Dawley rats were treated intraperitoneally with Finasteride 40 mg/kg and equimolar dose of compounds. After 6 hr of treatment, blood was withdrawn by cardiac puncture under diethyl ether anesthesia and serum was separated from cells by centrifugation. Plasma testosterone values were obtained by ELISA plate reader at […] and are given in ng/ml.
The aliquots of 50 μl of each of standards, control and unknown (serum samples) were added to Testosterone Antibody coated wells. 100 μl of HRP-testosterone conjugate was added to all the wells and the plates were shaken gently on a shaker for proper mixing of the reagents. Following 4 hr of incubation at 37° C., the incubation mixture was removed. The wells were washed with phosphate buffer for 5-6 times (200 μl each time), followed by addition of 100 μl of TMB/H2O2 substrate in each of the wells. The plates were further incubated at 37° C. for 20 minutes. At the end of incubation reaction was stopped by using 100 μl of 0.5 M H2SO4 as stopping reagent. The absorbance of each well was read on Elisa plate reader at 450 nm [Rassaie, M. J.; Kumari, G. L.; Pandey, P. K.; Gupta, N.; Kochupillai, N.; Grover, P. K. Steroids 1992, 57, 288 and Hosoda, H.; Yoshida, H.; Sakai, Y.; Miyairi, S.; Nambara, T. Chem. Pharm. Bull. 1980, 28, 3035]
Intact male rats (Sprague Dawley, 200-250 g) were used in the designed study in which various compounds were compared for in vivo 5α-reductase inhibitory potency, as judged by the their ability to attenuate the conversion of testosterone into dihydrotestosterone (DHT). […] The procedure measure T equally well, and method met all the requirement of precision, accuracy, sensitivity and selectivity.

[2] = In vitro cytotoxicity using mouse macrophages (acute toxicity), MTT assay; type: cell-based; settings: both sexes, Balb C; mouse macrophages, from linear equation of MTT data; read-out: LC50 (concentration lethal to 50% population of cells)
Description: (§1) All steroids were dissolved in ethanol and diluted to appropriate concentration: 0.01, 0.5, 1.0, 2.0, 5.0 μg/ml from the two stock solution of 1 mg/ml and […]. Stocks were maintained at room temperature.
(§2) […] Approximately 1 ml of Phosphate buffer saline preincubated at 37° C. was injected into cavity. The abdomen was lavaged for 10 min and fluid along with macrophages were taken out using a syringe into polypropylene tube. The phosphate solution was spun at 800 rpm for 5-10 min and cells were resuspended in 1 ml RPMI media. Cell number was counted using haemocytometer.
(§3) Cells (mouse macrophages) were plated at a density of 5×10^3 cells/well in 96 plate at 37° C. in 5% CO2. Cells were exposed in graded concentration of compounds at designated various concentration. Each concentration was tested in triplicate wells. After 48 hr fresh MTT 20 μl (1 mg/ml) was added directly to all the wells and culture was incubated for 4 hr at 37° C. During this incubation, MTT was converted into a water insoluble formazan complex by metabolic activity of viable cells. Formazan crystal were taken and dissolved in 100 μl of DMSO, which give light pink colour. The absorbance of each well was read on Elisa plate reader (Merck) at 570 nm. The spectrometer was calibrated to zero absorbance using culture medium without cells. The relative cell viability (%) related to control well containing cell culture medium without drug was calculated by [A]test/[A]control×100. % Cell Viability=[A]test/[A]control×100 [A]test=absorbance test sample [A]control=absorbance control sample Results: LC50: Concentration of the Compound in μg/ml (μm), Lethal to 50% Population of Cells.
(§4) The assay quantifies the viable cells, after […] incubation of cells with five different concentrations.

[3] = system: mouse macrophages (Balb C); assay: as above; type: cell-based
Description: as §1, §2, §3, §4

[4] = both, Balb C, mouse, 48 h, 0.01 μg/ml
[5] = both, Balb C, mouse, 48 h, 0.5 μg/ml
[6] = both, Balb C, mouse, 48 h, 1 μg/ml
[7] = both, Balb C, mouse, 48 h, 2 μg/ml
[8] = both, Balb C, mouse, 48 h, 5 μg/ml

Structure (SMILES)	% growth inhibition (mean ± SEM) [1] [%]	inhibition at 0.01 µg/mL [1] [%]	inhibition at 0.5 µg/mL [1] [%]	inhibition at 1 µg/mL [1] [%]	inhibition at 2 µg/mL [1] [%]	inhibition at 5 µg/mL [1] [%]	Serum levels of Testosterone, T (5α-reductase)	CC50 at 48 h [2] [µM]	% viable Cells (mean ± SEM) [3, 4] [%]	% viable Cells (mean ± SEM) [3, 5] [%]	% viable Cells (mean ± SEM) [3, 6] [%]	% viable Cells (mean ± SEM) [3, 7] [%]	% viable Cells (mean ± SEM) [3, 8] [%]	also measured
C[C@]12CC[C@H](OC(=O)c3ccc(O)cc3)CC1=CC[C@@H]1[C@@H]2CC[C@]2(C)C(=NO)CC[C@@H]12 [Compound 15, 17-oximino-5-androsten-3β-yl 4-hydroxybenzoate]	91.54 ± 0.19	62.6 ± 2.46	76.9 ± 5.94	83.08 ± 0.75	91.4 ± 1.5	> 90	0.73 ng/mL	22	89.80 ± 2.95	81.02 ± 2.83	63.99 ± 0.91	56.88 ± 0.39	55.36 ± 0.19	antiproliferative activity (in words) ([1]; 0.01-5.0 μg/ml): more potent than the reference Finasteride
C[C@]12CC[C@H](OC(=O)COc3ccccc3)CC1=CC[C@@H]1[C@@H]2CC[C@]2(C)C(=NO)CC[C@@H]12 [Compound 16, 17-oximino-5-androsten-3β-yl phenoxyacetate]		33.6 ± 7.66	24.2 ± 6.37	36.2 ± 9.85	76.5 ± 5.58	87.8 ± 1.11	0.85 ng/mL	89						effect on serum testosterone level (in words) (5α-reductase; rats, 6 hr post dose, compared to control): Significant increase in level of serum testosterone level; % viable Cells (mean ± SEM) ([3]; mouse macrophages, 0.01 μg/ml): 80.79 ± 2.30%; % viable Cells (mean ± SEM) ([3]; mouse macrophages, 0.5 μg/ml): 78.32 ± 0.89%; % viable Cells (mean ± SEM) ([3]; mouse macrophages, 1.0 μg/ml): 77.04 ± 0.23%; % viable Cells (mean ± SEM) ([3]; mouse macrophages, 2.0 μg/ml): 77.31 ± 0.37%; % viable Cells (mean ± SEM) ([3]; mouse macrophages, 5.0 μg/ml): 77.37 ± 0.16%; toxicity to mouse macrophages (in words) ([3]; mouse macrophages, 0.01-5.0 μg/ml): non toxic to mouse macrophages
CC(C)(C)NC(=O)[C@H]1CC[C@H]2[C@@H]3CC[C@H]4NC(=O)C=C[C@]4(C)[C@H]3CC[C@]12C [Finasteride, reference compound]	78.51 ± 4.63	5 ± 1.58	8.83 ± 8.4	16.5 ± 2.49	36 ± 8.95	78	1.26 ± 0.02 ng/mL and 1.26 ng/mL	28.2	96.45 ± 0.36	94.20 ± 1.72	93.32 ± 0.59	81.18 ± 0.20	79.14 ± 0.312	
